Read-outs that look alike come from different tables or passages of the source.
Assays:
[1] = tested on: STZ+DEN+HFD induced NASH model; experiment: STZ+DEN+HFD induced NASH model in mice; format: in vivo, male C57BL/6 mice
Procedure: Therapeutic efficacy of FXR compounds was evaluated in STZ+DEN+HFD induced NASH model in male C57BL/6 mice. Briefly, newborn male C57BL/6 mice were injected with streptozocin (STZ) at Week 2 to introduce diabetes and diethylnitrosamine (DEN) at Week 4 to promote liver fibrosis. Mice receiving neither STZ nor DEN were used as negative control (Group 1, n=12) and were fed with normal diet. At Week 6, 60 diabetic mice were selected (blood glucose>12 mmol/L after 6 h of fasting) and were fed with high fat diet (HFD, diet that contains 60 kcal % fat). After one week on HFD, animals were randomly assigned into 5 groups based on body weight: Group 2 (n=12), disease model group, no compound treatment; Group 3 (n=10), positive control group, treated with OCA (30 mg/kg); Group 4 (n=12), treated with Compound 1 (3 mg/kg); Group 5 (n=12), treated with Compound 1 (10 mg/kg); Group 6 (n=12), treated with Compound 1 (30 mg/kg). OCA and Compounds 1 were PO QD, for 7 weeks. On the day after last dose, all animals were euthanized and liver tissues were fixed with formalin for pathological evaluation.

[2] = tested on: DEN+HFD+CHOL induced NASH model; experiment: DEN+HFD+CHOL induced NASH model in rats; format: in vivo, male SD rats
Procedure: Therapeutic efficacy of FXR compounds was evaluated in DEN+HFD+CHOL induced NASH model in male SD rats. Newborn male rats received DEN injection at Week 2 after birth to generate NASH model. Negative control animals (Group 1, n=10) received no DEN injection. At Week 4, 50 rats that received DEN injections started HFD+CHOL diet (60 kcal % Fat+1.25% Cholesterol+0.5% cholate) for 8 weeks, while negative control animals were still on normal diet. At Week 5, DEN treated rats were randomly assigned into 5 groups (Group 2-6) based on body weight. Disease Group (Group 2, n=10), received no treatment; OCA group (Group 3, n=10) received OCA at 30 mg/kg. Group 4-6 (n=10 each) received Compound 1 at low (3 mg/kg), […], and […]. OCA and Compound 1 were given PO QD, for 7 weeks. On the day after last dose, all animals were euthanized and liver tissues were fixed with formalin for pathological evaluation.

[3] = Mouse pharmacokinetic studies (IV and PO); format: in vivo, Male CD-1 mice
Procedure: Mouse Pharmacokinetic Studies
Typical PK study procedure. For i.v. PK studies, a group of three fasted Male CD-1 mice were dosed with the compound (2.0 mg/kg, 0.50 mg/mL in 5% solutol in saline, clear solution), and 0.02 mL blood was collected at 0.0830, 0.250, 0.500, 1.00, 2.00, 4.00, 8.00, 24.0 h. For PO PK studies, a group of three fasted Male CD-1 mice were dosed with the compound (10 mg/kg, 1 mg/mL in 5% solutol in saline, clear solution), and 0.02 mL blood was collected at 0.250, 0.500, 1.00, 2.00, 4.00, 6.00, 8.00, 24.0 h. The blood was collected into EP tubes (containing EDTA K20.85-1.15 mg) and centrifuged at 3,000 g or 3,200 g at 4° C. for 10 min) and plasma was isolated and divided into two vials. One was used for bioanalysis and one was kept as backup. The samples were kept at −60° C. or below, until being analyzed by LC MS/MS. The samples were analyzed with AB SCIEX INSTRUMENTS LC-MS/MS AU-Triple Quad 6500 Plus and data were processed with Phoenix WinNonlin 6.3 (IV-noncompartmental model and PO-noncompartmental model).

[4] = male, CD-1, plasma, PO 10 mg/kg

| Compound | NAS score ([1]; 30 mg/kg PO QD 7 weeks) | NAS score ([2]; 30 mg/kg PO QD 7 weeks, p<0.001) | PO F ([3]; PO 10 mg/kg vs IV 2.0 mg/kg) [%] | Vd ([3]; male, CD-1, plasma, IV 2.0 mg/kg) [L/kg] | AUC(0-t) ([3]; male, CD-1, plasma, IV 2.0 mg/kg, read-out: IV AUC 0-t) [ng·h/mL] | clearance ([3]; male, CD-1, plasma, IV 2.0 mg/kg, read-out: IV Cl) [mL/min/kg] | half-life ([3]; male, CD-1, plasma, IV 2.0 mg/kg, read-out: IV T½ (converted)) [min] | Cmax [3, 4] [ng/mL] | Tmax [3, 4] [min] | AUC(0-t) ([3]; male, CD-1, plasma, PO 10 mg/kg, read-out: PO AUC 0-t) [ng·h/mL] | decreased NAS score as compared with the model group ([1]; 30 mg/kg PO QD 7 weeks) [%] | lowered cirrhosis percentage ([1]; 30 mg/kg PO QD 7 weeks) [%] | hepatocyte steatosis (FIG. 1) ([1]; 3, 10 and 30 mg/kg PO QD 7 weeks, p<0.001) | progress of liver fibrosis (FIG. 2) ([1]; low (3 mg/kg) and high doses (30 mg/kg) PO QD 7 weeks) | NAS score lowered as compared to the model group ([2]; 30 mg/kg PO QD 7 weeks) [%] | lowered cirrhosis percentage ([2]; 30 mg/kg PO QD 7 weeks) [%] | NAS score (FIG. 3) ([2]; 3, 10 and 30 mg/kg PO QD 7 weeks, all p<0.001) | progress of liver fibrosis (FIG. 4) ([2]; 3, 10 and 30 mg/kg PO QD 7 weeks, p<0.01) |
| --- | --- | --- | --- | --- | --- | --- | --- | --- | --- | --- | --- | --- | --- | --- | --- | --- | --- | --- |
| CC[C@H]1[C@@H](O)[C@@H]2[C@H](CC[C@]3(C)[C@@H]([C@H](C)CCC(=O)O)CC[C@@H]23)[C@@]2(C)CC[C@@H](O)C[C@@H]12 [OCA, reference compound] | decrease in NAS score | decrease in NAS score | – | – | – | – | – | – | – | – | – | – | – | – | – | – | – | – |
| O=C(O)c1ccc(Oc2ccc3cc(OCc4c(-c5c(Cl)cccc5Cl)noc4C4CC4)ccc3c2)nc1 [Compound 1, 6-((6-((5-cyclopropyl-3-(2,6-dichlorophenyl)isoxazol-4-yl)methoxy)naphthalen-2-yl)oxy)nicotinic acid] | significantly decreases | – | 33 | 1.75 | 705 | 47.4 | 51 | 641 | 49.8 | 1160 | 46.2 | 15.2 | dose dependent decrease | significantly inhibited | 42.9 | 28.0 | dose dependent decrease | significantly inhibited |

From patent US12600716B2 (Gannex Pharma Co., Ltd., priority 2020, dated 2026)
